Like-named read-outs stand apart in the source and are kept apart here.

In one data set the test system is longitudinal bone. Put plainly: ex-vivo longitudinal bone culture, length measurement. Conditions: for length of the longitudinal bone increased more effectively than by comparative indirubin derivatives: versus Comparative Examples 8, 9 and 10-12; for increase of the length of the long bone relative to the control group: printed as about two times (180%). Type of data set: cell-based, C57BL/6 mice. How it is done: Longitudinal bones were isolated from 15.5 embryonic day C57BL/6 mice and incubated for 7 days in a 24-well tissue culture dish. Medium was used as Minimal Essential Medim (α-MEM, Gibco) including 10% fetal bovine serum (FBS), 1 mM beta polyglycerol disodium phosphate, 50 ng/ml ascorbic acid, 0.3 g/L-glutamine, 0.2% BSA, 100 U/ml penicillin, 100 μg/ml streptomycin. After the longitudinal bone was separated from the mouse, the longitudinal bone isolated from the medium was incubated for 24 hours, and the drug was treated. The medium and the drug (here are Example 1, Example 2, Comparative Examples 1, 7-9 and indirubin derivatives of 10-12) were changed every other day. The length of the longitudinal bone was measured before and after treatment with the drug. The longitudinal bone tissue after drug treatment was marched with PBS and fixed using 4% formaldehyde.
In order to more precisely determine the effect of indirubin derivatives in Example 1 or Example 2 of the present invention and other indirubin derivatives on the culture of ex-vivo longintudinal bone, various indirubin derivatives (Examples 1 and 2 and comparison Example 1, 8, 9, 10-12 indirubin derivatives) were treated as in Experimental Method 6, and the length of the longitudinal bone was measured.
FIG. 1 is a photograph of the longitudinal bone cultured at each ex-vivo when treated with indirubin induction in Example 1, Example 2, and Comparison Example 1, 8, 9, 10-12. FIG. 2 is a graph and table showing the variation in the length of the longitudinal bone measured in FIG. 1. In this case, the drooping indirubin derivatives were identical at 0.5 μM and treated in culture medium for 6 days.
We sought to determine more accurately the effect of 6-bromoindirubin-3′-oxime (Comparative Example 6) on the culture of ex-vivo longitudinal bone. FIG. 3A is a photograph (left) of a longitudinal bone culture in ex-vivo and a graph showing the numerical value when treated with 6-bromoindirubin-3′-oxime of Comparative Example 6 (right). At that time, 0.5 μM 6-bromoindirubin-3′-oxime was treated in culture medium for 6 days. The control is longitudinal bone treated with DMSO solution instead of drug.

The test system of data set [1] is ATDC5 cells (chondrocytes). Put plainly: MTT reduction analysis. Type of data set: cell-based, Murine. Conditions: 24 hours treatment. How it is done: (§1) The ATDC5 cell (Murine constant cell line) was cultured in the DMEM (Dulbecco's modified Eagle's medium, Gibco, Grand Island, N.Y.) containing 5% Fetal Bovine Serum (FBS) and 1% penicillin/streptomycin under conditions of 37° C. and 5% CO2.
When the cells were stably attached after 5×10^3 ATDC5 cells were stuck in 96 well plate, the drug (here is 6-bromoindirubin-3′-oxime) was treated. After 24 hours, transfer to a medium containing 100 μg/ml MTT [3-(4,5-dimethylthiazol-2-yl)-2,5-diphenyletrazoliumbromide)] and incubate the cells for 2 hours before removing the growth medium. The MTT, which was reduced to purple formazan, was dissolved with DMSO and then excreted at 540 nm by ab absorbance measurement.
FIG. 3B is a graph of MTT reduction analysis of chondrocytes after treatment of different concentration of 6-bromoindirubin-3′-oxime to confirm if the reduction in the length of longitudinal bone treated with 6-bromoindirubin-3′-oxime in Comparative Example 6 is related to the effect on the survival rate of chondrocytes.
MTT reduction assay is a method to measure the viability of cells by analyzing the difference in absorbance due to the reduction of yellow MTT to purple formazan caused by mitochondrial enzyme reaction in living cells.
For orientation: Formazan colour is commonly taken as a measure of viable cells.

The nature of data set [2]: oral toxicity study in mouse. Conditions: in vivo. How it is done:
When an indirubin derivative represented by Formula 1 (5,6-dichloroindirubin-3′-methoxime) and an indirubin derivative represented by Formula 2 (5-methoxylindirubin-3′-oxime) were orally administered to a mouse for toxicity studies, they are considered to be safe substances because the 50% lethal dose (LD 50) of them are at least 1,000 mg/kg.

In data set [3] the test system is ALP (alkaline phosphatase). Put plainly: ALP activity assay in MC3T3-E1 cells. Type of data set: cell-based, Mouse. Conditions: for increase of ALP activity: MC3T3-E1 cells, differentiation medium, 48 hours, versus control. As to the method: (§2) The MC3T3-E1 cell (Mouse osteoblastic cell line) was cultivated under conditions of 37° C. and 5% CO2 at the minimal essential media (α-MEM) (Gibco) containing 10% prenatal serum and 1% penicillin/streptomycin. For the test of differentiation induction, cells were cultivated in α-MEM mediums containing 50 μg/ml ascorbic acid and 100 mM β-glycerophosphate.
5×10^4 MC3T3-E1 cells were incubated on a 24 well plate for two days and stuck. After confirming that the cells reached 100% confluency, the medications (5,6-dichloroindirubin-3′-methoxime in Example 1) were treated in the differentiation medium for 48 hours. The cells were cleaned with a phosphoric acid buffer solution and the samples harvested were treated with a buffer solution (pH 10.3) containing 50 mM Tris-chloric acid, 100 mM glisin and p-nitro phenylpospate after cell lysis. For analysis, 3 M sodium hydroxide was treated, and absorbance was measured at 405 nm. The ALP activity was quantified by measuring the protein concentration using Bradford Analyzer.
ALP activity analysis was performed as Experimental Method 5 to determine the effect of 5,6-dichloroindirubin-3′-methoxime in Example 1 and 5-methoxylindirubin-3′-oxime in Example 2 on bone mineral density. FIG. 4 is a table showing the measured a graph showing ALP activity in cells and a table showing the degree of ALP activity in cells treated with 5,6-dichloroindirubin-3′-methoxime of Example 1 according to the present invention, 5-methoxylindirubin-3′-oxime of Example 2, indirubin derivatives of Comparative Examples 1-5 and 12. The control is the ALP activity in the cells prior to drug treatment.

The subject of data set [4] is β-catenin. Put plainly: Immunocytochemistry of β-catenin expression and localization in ATDC5 cells. Type of data set: cell-based, Murine. Conditions: 24 hours treatment, ICC. As to the method: as §1
Drugs (here are 5,6-dichloroindirubin-3′-methoxime, 5-methoxylindirubin-3′-oxime) were treated for 24 hours when the cells were securely attached to the cover glass that was placed in the 12 well plate at a density of 2.5×10^4 cells per well. Cells were cleaned with phosphoric acid buffer solution and fixed at room temperature for 20 minutes by adding 4% paraformaldehyde, and then a protein expressed in the cells was observed through the process of permeabilization, blocking and immunofluorescence.
FIG. 6 is a photograph confirming the β-catenin concentration in the ATDC5 cells treated with 5,6-dichloroindirubin-3′-methoxime of Example 1 and 5-methoxylindirubin-3′-oxime of Example 2 by immunocytochemistry. In other words, the expression and localization of β-catenin in ATDC5 cells were confirmed through ICC.

In data set [5] the test system is β-catenin. In words: Western blot for β-catenin stabilization in MC3T3-E1 cells. Type of data set: cell-based, Mouse. Conditions: 24 hours treatment. How it is done: as §2
For Western blot analysis, drugs (here are 5,6-dichloroindirubin-3′-methoxime, 5-methoxylindirubin-3′-oxime) were treated 24 hours, and MC3T3-E1 cells were cultured and harvested in a culture dish to reach 100% confluency. Harvested samples for immunoblot was performed to quantify the protein was after cell lysis, using SDA-PAGE gel using the antibody after electrophoresis.
FIG. 5 is the result of Western blot using MC3T3-E1 cells (osteoblast cells) to confirm the effects of 5,6-dichloroindirubin-3′-methoxime of Example 1 and 5-methoxyindirubin-3′-oxime of Example 2 on the stability of β-catenin.
A general note: Immunoblotting shows a protein as a band on a membrane.

For data set [6], the system named is osteoblasts and chondrocytes. In words: toxicity to osteoblasts and chondrocytes. Type of data set: cell-based.
The mark [7] stands for this setting: 0.5 μM, 6 days in culture medium.

On to `O=C1Nc2cc(Br)ccc2/C1=C1/Nc2ccccc2/C1=N\O` [Comparative Example 6, 6-bromoindirubin-3′-oxime], for which the “length of the ex-vivo longitudinal bone compared to control group” value in the data set on longitudinal bone (0.5 μM, 6 days in culture medium, control DMSO) was “reduced”. Moreover, the “survival rate of chondrocytes” value in data set [1] (5 μM) is on record as “below 50%”. The “concentration at which growth of chondrocytes is inhibited” value in data set [1] is at least 1000 nM.

Consider `CO/N=C1/C(=C2/C(=O)Nc3cc(Cl)c(Cl)cc32)Nc2ccccc21` [Example 1, 5,6-dichloroindirubin-3′-methoxime], for which the LD50 in data set [2] (orally administered, read-out: 50% lethal dose (LD 50)) is at least 1000 mg/kg. In addition, the “increase of ALP activity” value in data set [3] is about 2 fold. Further, the “movement of stabilized β-catenin into the nucleus” value in the data set on β-catenin [4] is on record as “increase the mobility of the stabilized β-catenin into the nucleus”. In addition, in the data set with longitudinal bone (setting [7]), the “length of the longitudinal bone increased more effectively than by comparative indirubin derivatives” value was “about 54%”. Moreover, the “increase of the length of the long bone relative to the control group” value in the data set on longitudinal bone is reported as about 180%. The “stabilization of β-catenin” value in the data set with β-catenin [5] is on record as “significantly induced the stabilization of β-catenin”. Also, the “toxicity to osteoblasts and chondrocytes” value in data set [6] is “not toxic”.

`COc1ccc2c(c1)/C(=C1/Nc3ccccc3/C1=N\O)C(=O)N2` [Example 2, 5-methoxylindirubin-3′-oxime] gave an LD50 in data set [2] of at least 1000 mg/kg. Further, the “increase of ALP activity” value in data set [3] was about 2 fold. Besides, the “effects on bone growth, bone thickness or both more significant than those of other indirubin derivatives” value in data set [3] (versus other indirubin derivatives, test not specified) is on record as “more than 30%”. Further, the “movement of stabilized β-catenin into the nucleus” value in the data set with β-catenin [4] is reported as “increase the mobility of the stabilized β-catenin into the nucleus”. Besides, the “length of the longitudinal bone increased more effectively than by comparative indirubin derivatives” value in the data set with longitudinal bone (setting [7]) was “about 54%”. Also, the “increase of the length of the long bone relative to the control group” value in the data set on longitudinal bone is on record as about 180%. Besides, the “stabilization of β-catenin” value in the data set with β-catenin [5] was “significantly induced the stabilization of β-catenin”. The “toxicity to osteoblasts and chondrocytes” value in data set [6] is “not toxic”.
